Laboratory results: patent US20210395239A1 (Hoffmann-La Roche Inc., priority 2018, published 2021)

Target: T1, human TLR8 (Homo sapiens, UniProt Q9NR97)
T1 construct: host or cells: HEK293 (HEK-Blue hTLR8)
T1 sequence (Q9NR97 27-1041): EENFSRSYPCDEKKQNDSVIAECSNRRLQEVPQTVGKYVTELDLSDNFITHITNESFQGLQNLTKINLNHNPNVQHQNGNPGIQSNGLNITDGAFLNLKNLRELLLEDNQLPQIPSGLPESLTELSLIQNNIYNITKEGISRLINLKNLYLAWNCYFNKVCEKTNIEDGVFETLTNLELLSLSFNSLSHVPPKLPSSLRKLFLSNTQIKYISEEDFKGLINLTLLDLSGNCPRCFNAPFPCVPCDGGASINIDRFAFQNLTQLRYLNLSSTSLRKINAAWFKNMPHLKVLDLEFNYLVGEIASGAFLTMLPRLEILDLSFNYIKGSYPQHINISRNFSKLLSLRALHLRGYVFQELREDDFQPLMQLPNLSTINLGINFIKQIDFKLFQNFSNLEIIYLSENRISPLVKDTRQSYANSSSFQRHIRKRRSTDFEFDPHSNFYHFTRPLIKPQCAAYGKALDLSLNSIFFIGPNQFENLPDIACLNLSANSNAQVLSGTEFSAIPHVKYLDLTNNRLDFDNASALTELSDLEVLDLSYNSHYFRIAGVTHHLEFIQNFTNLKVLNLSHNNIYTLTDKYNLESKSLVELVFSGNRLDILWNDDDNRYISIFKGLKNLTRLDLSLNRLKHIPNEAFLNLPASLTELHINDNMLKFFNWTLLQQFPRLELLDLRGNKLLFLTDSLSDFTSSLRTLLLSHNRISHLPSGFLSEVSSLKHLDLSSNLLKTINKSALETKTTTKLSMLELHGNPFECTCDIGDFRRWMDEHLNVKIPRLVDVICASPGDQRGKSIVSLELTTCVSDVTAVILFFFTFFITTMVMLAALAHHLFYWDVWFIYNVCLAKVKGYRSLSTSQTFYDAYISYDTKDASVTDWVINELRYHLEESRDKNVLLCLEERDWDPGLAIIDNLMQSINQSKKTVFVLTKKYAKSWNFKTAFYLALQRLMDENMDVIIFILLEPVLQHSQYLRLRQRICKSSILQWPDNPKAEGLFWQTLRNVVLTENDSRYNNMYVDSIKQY
Test: HEK293-Blue-hTLR-8 cells assay (SEAP reporter, R848 stimulation)
Type: cell-based
Settings: HEK293-Blue-hTLR8 cells, R848, 20 hrs; read-out: HEK/hTLR8 IC50
Summary of the method: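 Antagonism read as reduced R848-induced SEAP reporter secretion, detected by QUANTI-Blue absorbance at 620–655 nm after 2 h. Reporter cells were exposed to compound dilutions in DMEM/10% FBS, 1% DMSO, for 20 h at 37° C.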

| IC50 [nM] | SMILES |
| --- | --- |
| 3 | CO[C@H]1CN(c2nc(C)cc(N3CCN(C[C@H]4CN(c5ccc(C#N)c6ncccc56)C[C@@H](C)O4)CC3)n2)CC1N (relative stereo) [Example 59, 5-[(2R,6S)-2-methyl-6-[[4-[6-methyl-2-[trans-3-amino-4-methoxy-pyrrolidin-1-yl]pyrimidin-4-yl]piperazin-1-yl]methyl]morpholin-4-yl]quinoline-8-carbonitrile] |
| 3 | Cc1cc(N2CCN(C[C@H]3CN(c4ccc(C#N)c5ncccc45)C[C@@H](C)O3)CC2)nc(N2CC(N)C(F)C2)n1 (stereo in doubt) [Example 54, 5-[(2S,6R)-2-[[4-[2-[(3S,4R)-3-amino-4-fluoro-pyrrolidin-1-yl]-6-methyl-pyrimidin-4-yl]piperazin-1-yl]methyl]-6-methyl-morpholin-4-yl]quinoline-8-carbonitrile] |
| 93 | COC1CN(c2ccc(C3CN(C[C@H]4CN(c5cc(=O)n(C)c6ncccc56)C[C@@H](C)O4)C3)cc2)C[C@H]1N (stereo in doubt) [Example 172, 4-[(2S,6R)-2-[[3-[4-[(3R,4R)-3-amino-4-methoxy-pyrrolidin-1-yl]phenyl]azetidin-1-yl]methyl]-6-methyl-morpholin-4-yl]-1-methyl-1,8-naphthyridin-2-one] |
| 159 | C[C@@H]1CN(c2cc(=O)n(C)c3ncccc23)C[C@H](CN2CC(c3ccc(N4CC(F)[C@H](N)C4)cc3)C2)O1 (stereo in doubt) [Example 174, 4-[(2S,6R)-2-[[3-[4-[(3R,4R)-3-amino-4-fluoro-pyrrolidin-1-yl]phenyl]azetidin-1-yl]methyl]-6-methyl-morpholin-4-yl]-1-methyl-1,8-naphthyridin-2-one] |
| 13 | C[C@@H]1CN(c2ccc(C#N)n3ncc(F)c23)C[C@H](CN2CCN(c3ccc(C4CNCCO4)cc3F)CC2)O1 (stereo in doubt) [Example 183, 3-fluoro-4-[(2S,6R)-2-[[4-[2-fluoro-4-[(2S)-morpholin-2-yl]phenyl]piperazin-1-yl]methyl]-6-methyl-morpholin-4-yl]pyrazolo[1,5-a]pyridine-7-carbonitrile] |
| 10 | C[C@@H]1CN(c2ccc(C#N)c3ncccc23)C[C@H](CN2CCN(c3cccc(N4CCNCC4)n3)CC2)O1 [Example 10, 5-[(2R,6S)-2-methyl-6-[[4-(6-piperazin-1-yl-2-pyridyl)piperazin-1-yl]methyl]morpholin-4-yl]quinoline-8-carbonitrile] |
| 3 | C[C@@H]1CN(c2ccc(C#N)c3ncccc23)C[C@H](CN2CCN(c3cnc(N4CCNCC4)nc3)CC2)O1 [Example 12, 5-[(2R,6S)-2-methyl-6-[[4-(2-piperazin-1-ylpyrimidin-5-yl)piperazin-1-yl]methyl]morpholin-4-yl]quinoline-8-carbonitrile] |
| 5 | C[C@@H]1CN(c2ccc(C#N)c3ncccc23)C[C@H](CN2CCN(c3ccc(N4CCNCC4)nc3)CC2)O1 [Example 13, 5-[(2R,6S)-2-methyl-6-[[4-(6-piperazin-1-yl-3-pyridyl)piperazin-1-yl]methyl]morpholin-4-yl]quinoline-8-carbonitrile] |
| 6 | C[C@@H]1CN(c2ccc(C#N)c3ncccc23)C[C@H](CN2CCN(c3ncc(N4CCNCC4)cn3)CC2)O1 [Example 17, 5-[(2R,6S)-2-methyl-6-[[4-(5-piperazin-1-ylpyrimidin-2-yl)piperazin-1-yl]methyl]morpholin-4-yl]quinoline-8-carbonitrile] |
| 6 | C[C@@H]1CN(c2ccc(C#N)c3ncccc23)C[C@H](CN2CCN(c3cc(N4CCNCC4)ncn3)CC2)O1 [Example 18, 5-[(2R,6S)-2-methyl-6-[[4-(6-piperazin-1-ylpyrimidin-4-yl)piperazin-1-yl]methyl]morpholin-4-yl]quinoline-8-carbonitrile] |
| 10 | C[C@@H]1CN(c2ccc(C#N)c3ncccc23)C[C@H](CN2CCN(c3ccc([C@H]4CNCCO4)cc3)CC2)O1 [Example 20, 5-[(2R,6S)-2-methyl-6-[[4-[4-[(2S)-morpholin-2-yl]phenyl]piperazin-1-yl]methyl]morpholin-4-yl]quinoline-8-carbonitrile] |
| 18 | C[C@@H]1CN(c2ccc(C#N)c3ncccc23)C[C@H](CN2CCN(c3ccnc(N4CC(N)C4)n3)CC2)O1 [Example 23, 5-[(2S,6R)-2-[[4-[2-(3-aminoazetidin-1-yl)pyrimidin-4-yl]piperazin-1-yl]methyl]-6-methyl-morpholin-4-yl]quinoline-8-carbonitrile] |
| 3 | CO[C@H]1CN(c2nccc(N3CCN(C[C@H]4CN(c5ccc(C#N)c6ncccc56)C[C@@H](C)O4)CC3)n2)C[C@@H]1N [Example 26, 5-[(2S,6R)-2-[[4-[2-trans-(3-amino-4-methoxy-pyrrolidin-1-yl)pyrimidin-4-yl]piperazin-1-yl]methyl]-6-methyl-morpholin-4-yl]quinoline-8-carbonitrile] |
| 3 | C[C@@H]1CN(c2ccc(C#N)c3ncccc23)C[C@H](CN2CCN(c3ccnc(N4CCC(N)CC4)n3)CC2)O1 [Example 27, 5-[(2S,6R)-2-[[4-[2-(4-amino-1-piperidyl)pyrimidin-4-yl]piperazin-1-yl]methyl]-6-methyl-morpholin-4-yl]quinoline-8-carbonitrile] |
| 4 | C[C@@H]1CN(c2ccc(C#N)c3ncccc23)C[C@H](CN2CCN(c3ccnc(NC4CNC4)n3)CC2)O1 [Example 28, 5-[(2S,6R)-2-[[4-[2-(azetidin-3-ylamino)pyrimidin-4-yl]piperazin-1-yl]methyl]-6-methyl-morpholin-4-yl]quinoline-8-carbonitrile] |
| 6 | C[C@@H]1CN(c2ccc(C#N)c3ncccc23)C[C@H](CN2CCN(c3ccnc(OCCN(C)C)n3)CC2)O1 [Example 30, 5-[(2S,6R)-2-[[4-[2-[2-(dimethylamino)ethoxy]pyrimidin-4-yl]piperazin-1-yl]methyl]-6-methyl-morpholin-4-yl]quinoline-8-carbonitrile] |
| 5 | C[C@@H]1CN(c2ccc(C#N)c3ncccc23)C[C@H](CN2CCN(c3ccnc(N4CCN(C(=O)[C@@H]5CCCN5)CC4)n3)CC2)O1 [Example 31, 5-[(2R,6S)-2-methyl-6-[[4-[2-[4-[(2S)-pyrrolidine-2-carbonyl]piperazin-1-yl]pyrimidin-4-yl]piperazin-1-yl]methyl]morpholin-4-yl]quinoline-8-carbonitrile] |
| 3 | C[C@@H]1CN(c2ccc(C#N)c3ncccc23)C[C@H](CN2CCN(c3ccnc(N4CCN(C(=O)CN(C)C)CC4)n3)CC2)O1 [Example 32, 5-[(2S,6R)-2-[[4-[2-[4-[2-(dimethylamino)acetyl]piperazin-1-yl]pyrimidin-4-yl]piperazin-1-yl]methyl]-6-methyl-morpholin-4-yl]quinoline-8-carbonitrile] |
| 7 | C[C@@H]1CN(c2ccc(C#N)c3ncccc23)C[C@H](CN2CCN(c3cccc(N4CCN(C)CC4)n3)CC2)O1 [Example 33, 5-[(2R,6S)-2-methyl-6-[[4-[6-(4-methylpiperazin-1-yl)-2-pyridyl]piperazin-1-yl]methyl]morpholin-4-yl]quinoline-8-carbonitrile] |
| 4 | C[C@@H]1CN(c2ccc(C#N)c3ncccc23)C[C@H](CN2CCN(c3ccnc(N4CCN(C(=O)C5CCN5)CC4)n3)CC2)O1 (stereo partly drawn) [Example 34, 5-[(2S,6R)-2-[[4-[2-[4-(azetidine-2-carbonyl)piperazin-1-yl]pyrimidin-4-yl]piperazin-1-yl]methyl]-6-methyl-morpholin-4-yl]quinoline-8-carbonitrile] |
| 33 | C[C@@H]1CN(c2ccc(C#N)c3ncccc23)C[C@H](CN2CCN(c3cccc(N[C@H]4CNC[C@@H]4F)n3)CC2)O1 [Example 35, 5-[(2S,6R)-2-[[4-[6-[[(3S,4S)-4-fluoropyrrolidin-3-yl]amino]-2-pyridyl]piperazin-1-yl]methyl]-6-methyl-morpholin-4-yl]quinoline-8-carbonitrile] |
| 11 | C[C@@H]1CN(c2ccc(C#N)c3ncccc23)C[C@H](CN2CCN(c3cccc(N4CCC(N)CC4)n3)CC2)O1 [Example 36, 5-[(2S,6R)-2-[[4-[6-(4-amino-1-piperidyl)-2-pyridyl]piperazin-1-yl]methyl]-6-methyl-morpholin-4-yl]quinoline-8-carbonitrile] |
